Measured values as given in patent publication US7687512B2, “Use of pyridinyl-pyrimidinylamino-benzamide derivatives for the treatment of amyloid related disorders” (Novartis AG, priority 2003, dated 2010).

Legend:
HEK/APPswe cells = details: HEK/APPswe cell cultures, at concentrations below 10 microM
Procedure: To determine cytotoxicity, cells are tested by the MTS colorimetric kit performed essentially according to the manufacturer's specifications (Promega, #G5430X). After collecting the conditioned medium for the sandwich ELISA, the rest of the conditioned medium is removed completely and replaced with 100 μl/well culture medium containing one fifth of MTS solution prepared as recommended in the kit. After 3 hours incubation at 37° C., absorbance is read at an OD of 490 nm with a reference wavelength set to 630 nm. Values are given as % metabolic rate (n=6). The 0% value is calculated from wells which had no cells, 100% from wells with an untreated cell layer

Abeta secretion = details: HEK/APPswe cell cultures, at concentrations below 10 microM
Procedure: HEK/APPswe cells are plated in microtiter plates precoated with 10 μg/ml poly-D-lysine at 12,000 cells/well in 100 μl/well DMEM medium supplemented with 10% FCS, 0.25 mg/ml G418 sulfate, 1% penicillin streptomycin. The following day, supernatant is replaced with 90 μl/well of fresh medium and 10 μl/well of compound diluted in culture medium are added. Two types of control wells are used: cell culture medium without cells plus 10 μl/well of all compound dilutions (background signals) and cell culture medium from untreated cells (positive control). 24 hours later after compound addition, conditioned medium is collected and Aβ levels determined by a specific sandwich ELISA.
For the sandwich ELISA, the maxisorp microtiterplates are coated overnight at 4° C. with 100 μl/well of the monoclonal antibody 25H10 diluted 1:1000 in PB for Aβ40 detection or monoclonal antibody B10E7 diluted 1:2750 for detection of Aβ42. […] After 1 hour incubation at room temperature wells are washed as described above and alkaline phosphatase activity is determined by adding 100 μl/well of diethanolamine buffer, pH 9.8 (100 mM diethanolamine, 1 mM MgCl2, pH adjusted to 9.8 with 2 M HCl) containing the chemiluminescent CSPD substrate (25 mM stock solution diluted 1:416) and the enhancer Emerald II (diluted 1:10). […] Samples are measured in triplicate. […]

Cc1cn(-c2cc(NC(=O)c3ccc(C)c(Nc4nccc(-c5cccnc5)n4)c3)cc(C(F)(F)F)c2)cn1 [Example 2, 4-Methyl-N-[3-(4-methyl-imidazol-1-yl)-5-trifluoromethyl-phenyl]-3-(4-pyridin-3-yl-pyrimidin-2-ylamino)-benzamide]
effect on cellular viability (HEK/APPswe cells): without having any effect | reduction of Abeta secretion in the medium (Abeta secretion): clear reduction
